Results from patent publication US20220047698A1, “SYNTHETIC INNATE IMMUNE RECEPTOR LIGANDS AND USES THEREOF” (ALBERTA RESEARCH CHEMICALS INC., priority 2018, published 2022).

Tested on: BALB/c mice
Experiment: Mouse immunization with OVA plus adjuvant combinations, serum IgG1 / IgG2a
Type: in vivo
Details: mice vaccinated with OVA and adjuvant combinations, subcutaneous, booster Day 21; for serum IgG1: FIG. 2; for serum IgG2a: FIG. 3
Procedure: Ability of compounds as vaccine adjuvants are assessed through their ability to induce robust immune responses in mice when administered along with a standard experimental antigen, OVA peptide, and compared the balance of Th1 and Th2 responses from their IgG1a and IgG2a responses as well as the cytokine production in mice. It is very common to see the antibody responses to many adjuvants but it is important to see the cellular responses as well which are used as therapeutic vaccines such as cancer vaccines.
Mouse Immunization: Groups of BALB/c mice were immunized with vaccine formulations wherein OVA (50 μg/dose) is combined with PZ (10 μg/dose), PIC (10 μg/dose), and adjuvant alone or in combination (20 μg/dose). In Trial 1, mice (n=8 per group) were immunized subcutaneously with 100 μl total volume with OVA alone, OVA+PZ/PI/52, OVA+52, or saline. In Trial 2, mice (n=8 per group) were immunized subcutaneously with 200 μl total volume with OVA alone, OVA+52, OVA+PZ+PIC, OVA+52+PZ+PI, OVA+(63+97) nanoparticles, or OVA+(52+63+97)nanoparticles, where the number refers to the compound number. The volume was doubled in Trial 2 because the (63+97)Np's were viscous and required more buffer to be easily injected. Mice received a booster immunization on Day 21. Blood was obtained on day 21, day 35 for both trials and 48 for trial 1 only. Mice were euthanized with isofluorane on Day 35 in Trial 2 and Day 48 in Trial 1. Spleens were isolated on day of euthanization.

Compound	serum IgG1	serum IgG2a
CC(=O)N[C@@H]1[C@@H](O[C@H](C)C(=O)N[C@@H](C)C(=O)N[C@@H](CCC(=O)O)C(N)=O)[C@H](O)[C@@H](COC(=O)CCCCCCCCCCCC(C)C)O[C@H]1O [Compound 63, (S)-4-((S)-2-((R)-2-(((2R,3R,4R,5S,6R)-3-acetamido-2,5-dihydroxy-6-(((13-methyltetradecanoyl)oxy)methyl)tetrahydro-2H-pyran-4-yl)oxy)propanamido)propanamido)-5-amino-5-oxopentanoic acid]	significant increased production	significant increased production
CSCC[C@H](NC=O)C(=O)N[C@@H](CC(C)C)C(=O)N[C@@H](Cc1ccccc1)C(=O)NCCNC(=O)[C@H](CCCCN)NC(=O)[C@H](CCCCN)NC(=O)[C@H](CCCCN)NC(=O)[C@H](CO)NC(=O)[C@H](CSCC(COC(=O)CCCCCCCCCCCC(C)C)OC(=O)CCCCCCCCCCCC(C)C)NC(=O)CCCCCCCCCCCC(C)C.Cl.Cl.Cl (stereo partly drawn) [Compound 52, TrilipoCys-Ser-Lys-Lys-Lys-NH—CH2-CH2-NH-F-L-Mf]	significant increased production	significant increased production
